Data set [1] has as its target T1, CD11b A-domain (αA-domain) (Homo sapiens, UniProt P11215).
T1 construct: protein fragments spanning residues Gly^111-Gly^321 (321WT); made in house; host or cells: Escherichia coli
Kind of data set: αA-domain ligand-binding assay (GST-αA-domain to immobilized Fg). The conditions noted are these: to level of activating mutant I316G. From the text:
Purification of recombinant CD11b A-Domain (.Alpha.A-Domain). Recombinant human aA-domains were constructed and purified according to published protocols. […] The aA-domain in its active conformation was generated by replacing Ile^316 with Gly (1316G [55]) using forward primer 5′-[…]-3′ (SEQ ID NO: 3) and reverse primer 5′-[…]-3′ (SEQ ID NO: 4). The insert was digested with BamHI and SmaI and ligated into pGEX-2T vector also digested with BamHI and SmaI. All constructs were confirmed by direct DNA sequencing. All recombinant proteins were expressed as glutathione S-transferase (GST) fusion proteins in Escherichia coli and purified by affinity chromatography (Glutathione-beads, Sigma) following manufacturer's instructions. Purified protein preparations were dialyzed against 20 mm Tris-HCl, pH 7.5, 150 mm NaCl (Tris-buffered saline) and subsequently concentrated using Amicon-10 columns (Millipore) and stored at −80° C. […]
Maxisorp 96-well plates were coated with Fg (1 μg/well) in 10 mM PBS, pH 7.4 overnight and blocked with 1% bovine serum albumin in PBS. […] Subsequently, the amount of bound protein was determined by incubating with anti-GST antibody conjugated to horseradish peroxidase (GE, Piscataway, N.J.) (1:2000 dilution) for 1 hr. […] Absorbance was read using Spectromax M5 spectrophotometer (Molecular Devices, Sunnyvale, Calif.). […]

The test system of a further data set is K562 CD11b/CD18 cells. The experiment in a line: Cell viability assay (MTS). It is filed as cell-based. The conditions noted are these: 24 h; concentrations as high as 50 μM. As to the method: Cell viability assay was performed as described. Briefly, K562 CD11b/CD18 cells (10,000/well) were incubated in 96 well plates (Corning, Corning, N.Y.) with increasing amounts of indicated compound for 24 h. The number of viable cells after 24 h was determined by using MTS reagent according to manufacturers protocol (Promega, Madison, Wis.) and using Spectramax M5 spectrophotometer (Molecular Devices) for reading of the assay plates. Data presented is representative of at least two independent experiments.

A further data set deals with Fischer 344 rats. The experiment in a line: Balloon induced arterial injury in rats. It is filed as in vivo, rat. From the text: All surgeries were under isoflurane anaesthesia (Baxter, Ill., USA). Balloon injury in the right iliac artery was inflicted with a 2F Fogarty catheter (Baxter Corp., Irvine, Calif., USA) adapted to a custom angiographic kit (Boston Scientific, Scimed). An aortotomy in the abdominal aorta was made to insert a 2F Fogarty embolectomy catheter to the level of the right iliac artery. The balloon was inflated to 1.5-1.6 atmospheres and retracted to the arteriotomy site three times. The aortic excision was repaired with 8.0 sutures. The abdominal cavity was closed by planes using interrupted suture pattern. Arterial specimens were collected 3-30 days after injury and fixed in 4% formalin-PBS (Sigma-Aldrich, St. Louis, Mo.) for 5 min and analyzed by histology and immunostaining
Elastica van Gieson staining was used for histochemical analyses to evaluate neointima formation. Morphometric analyses was performed in a blinded fashion using NIH ImageJ. Immunostaining with anti-rat CD68 (1:50, AbD Serotec) for the detection of macrophages in the tissue.
Leukocyte recruitment precedes neointimal thickening and restenosis following percutaneous transluminal coronary angioplasty (PTCA). […]

The subject of a further data set is mice. The experiment in a line: Anti-glomerular basement membrane (anti-GBM) nephritis model. It is filed as in vivo, mouse. The text has this: To determine whether CD11b/CD18 agonists have any therapeutic advantages over antagonists, we performed a head-to-head comparison between a well-characterized CD11b/CD18 antagonist (anti-CD11b antibody M1/70, [82]) and LA1 using an established mouse model of kidney disease, the anti-glomerular basement membrane (anti-GBM) nephritis. This model is characterized by neutrophil infiltration that mediates urinary protein loss, including albumin. In line with an important role for CD11b in this disease, CD11b^−/− mice and anti-CD11b mAb treated rats show decreased leukocyte infiltration and a protection from proteinuria. Here, induction of disease in mice led to peak influx of neutrophils and maximal proteinuria at day 3.

T1 sequence (P11215 127-337): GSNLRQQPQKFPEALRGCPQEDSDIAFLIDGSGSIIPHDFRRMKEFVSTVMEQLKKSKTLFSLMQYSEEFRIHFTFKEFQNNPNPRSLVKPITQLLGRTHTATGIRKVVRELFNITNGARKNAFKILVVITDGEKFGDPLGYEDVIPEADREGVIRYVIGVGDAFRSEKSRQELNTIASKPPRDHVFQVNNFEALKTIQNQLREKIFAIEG

For `O=C(O)c1ccc(-c2ccc(/C=C3\SC(=S)N(Cc4ccccc4)C3=O)o2)cc1` [LA1], the “binding of the WT αA to the immobilized ligand” value in data set [1] was “increased binding”. In addition, in the data set with K562 CD11b/CD18 cells, the “in vitro cytotoxicity to K562 cells” value is given as “no cytotoxicity”. Further, the “neointima to media ratio” value with Fischer 344 rats (rat arteries 21 days after balloon injury, vehicle 0.23±0.01) was determined as 0.16±0.02. In addition, the “number of medial macrophages (CD68)” value in the data set with Fischer 344 rats (rat arteries three days post-injury, vehicle 42.2±6.7) is listed as 17.7±3.1. In addition, in the data set on mice, the “number of infiltrated neutrophils (neutrophil influx)” value was “significant and maximal decrease”; the proteinuria entry was “significant and maximal decrease”.

The values above are taken from US9023876B2, “Compounds and methods for regulating integrins” (Adhaere Pharmaceuticals, Inc., priority 2010, dated 2015).
